The results in this text go back to ChEMBL document CHEMBL1201862, “PubChem BioAssay data set” (2004).

The structures appear in SMILES notation.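 Protocol summary: plate cells (96-well), add compound at 5 concentrations, incubate 48 h, interpolate endpoints linearly. GI50 = concentration required for 50% inhibition of growth.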 Calls of active or inactive are those of the source. Rule as the data show it: active = GI50 up to about 1.1 µM and inactive = higher. Peptide text beside a SMILES is read from it. * marks the point of attachment. Cbz = O=C(OCc1ccccc1)*; OBn = c1ccc(CO*)cc1

Some test systems named below: 786-0; ACHN; COLO 205; EKVX; HOP-62; K562; KM12; M14; MDA-MB-231; MDA-MB-435; MDA-N; Malme-3M; NCI-H23; OVCAR-4; RXF 393; SK-MEL-2; UACC-257; HOP-92; UACC-62; A498.
What all share (test): DTP human tumour cell line panel, 48 h

On to `N#Cc1nc(Cc2ccccc2)oc1N`, for which the GI50 in the assay with 786-0 is > 100 µM (inactive); in the assay on ACHN, > 100 µM (inactive); in the assay with COLO 205, > 100 µM (inactive); in the assay on EKVX, > 100 µM (inactive); in the assay on HOP-62 it was > 100 µM (inactive); in the assay with K562, 42.1 µM (inactive). Besides, the GI50 with KM12, in the assay with M14, in the assay with MDA-MB-231, in the assay with MDA-MB-435, in the assay on MDA-N and in the assay on Malme-3M was > 100 µM (inactive) throughout. Further, the GI50 in the assay on NCI-H23, in the assay with OVCAR-4, in the assay on RXF 393, in the assay with SK-MEL-2 and with UACC-257 was > 100 µM (inactive) throughout.
Take `O=C1N=C2SC=C(NC(=S)Nc3ccccc3)N2NC12c1ccccc1-c1ccccc12`: the GI50 was > 10 µM (inactive) in the assay on 786-0; 9.4 µM (inactive) in the assay on ACHN; > 10 µM (inactive) in the assay with COLO 205; 9.25 µM (inactive) in the assay with EKVX; > 10 µM (inactive) in the assay with HOP-62; > 10 µM (inactive) in the assay on HOP-92. Moreover, the GI50 in the assay with K562, in the assay with KM12, with M14, in the assay on MDA-MB-231, in the assay with MDA-MB-435 and in the assay on MDA-N was > 10 µM (inactive) each time. The GI50 in the assay on Malme-3M, with NCI-H23, in the assay with OVCAR-4, with RXF 393, in the assay on UACC-257 and in the assay on UACC-62 was > 10 µM (inactive) in each case.
As to `COC[C@@H](C[C@H]1O[C@@](O)([C@H](O)[C@@H]2C[C@H](OC)[C@@H](O)CC/C=C(C)/C=C/[C@@H](O[C@@H]3O[C@@H](C)[C@H](OC)[C@@H](O)[C@@H]3O)[C@H](C)/C=C(C)/C=C(C)/C=C(\C)C(=O)O2)[C@H](C)[C@@H](O)[C@H]1C)O[C@H]1C[C@](C)(O)[C@@H](O[C@H]2C[C@@H](OC)[C@H](O)[C@@H](C)O2)C(C)O1` (stereo not given in full), the GI50 was > 100 µM (inactive) with 786-0; 96.4 µM (inactive) in the assay on ACHN; 0.221 µM (active) in the assay with COLO 205; 0.119 µM (active) in the assay with EKVX; > 90.2 µM (inactive) in the assay on HOP-92; 0.149 µM (active) with K562. The GI50 was > 66.2 µM (inactive) in the assay with KM12; > 100 µM (inactive) with M14; > 100 µM (inactive) in the assay on MDA-MB-231; > 89.1 µM (inactive) in the assay with MDA-MB-435; > 100 µM (inactive) in the assay on MDA-N; 0.0532 µM (active) in the assay on NCI-H23. The GI50 with OVCAR-4 is 41.3 µM (inactive); with RXF 393, > 100 µM (inactive); in the assay with SK-MEL-2, > 55 µM (inactive); in the assay with UACC-257 it was 0.0374 µM (active); in the assay on UACC-62, > 100 µM (inactive).
As for `COC(=O)CNC(=O)C(C)NC(=O)C(CC(=O)OCc1ccccc1)NC(=O)OCc1ccccc1` (stereo not drawn) (Cbz-Asp(OBn)-Ala-Gly-OMe; configuration not given here), the GI50 in the assay on 786-0 was > 100 µM (inactive); in the assay on COLO 205, 38.4 µM (inactive); in the assay with HOP-62, > 100 µM (inactive); in the assay with HOP-92, 66.5 µM (inactive); with K562, 27.5 µM (inactive); in the assay on KM12, 73.6 µM (inactive). Moreover, the GI50 in the assay with M14 was > 100 µM (inactive); with MDA-MB-231, 6.64 µM (inactive); in the assay with MDA-MB-435, 37.1 µM (inactive); in the assay with MDA-N, 53.6 µM (inactive); in the assay on Malme-3M, 45.2 µM (inactive); in the assay on NCI-H23 it was 36.6 µM (inactive). For the same compound, the GI50 is 13.8 µM (inactive) in the assay on RXF 393, 65.5 µM (inactive) in the assay on SK-MEL-2, 32.4 µM (inactive) in the assay with UACC-257 and 58.3 µM (inactive) in the assay on UACC-62.
Regarding `CC(C(N)C(=O)NC(C(=O)O)C1OC(n2ccc(=O)[nH]c2=O)C(O)C1O)C(O)c1ccc(O)cn1` (stereo not given), the GI50 in the assay with 786-0, in the assay on ACHN, in the assay with COLO 205, in the assay on EKVX, in the assay on HOP-62 and in the assay on HOP-92 was > 100 µM (inactive) throughout. Also, the GI50 with KM12, with M14, in the assay with MDA-MB-231, in the assay with MDA-MB-435, in the assay on MDA-N and in the assay with NCI-H23 was > 100 µM (inactive) throughout. The GI50 in the assay on SK-MEL-2, with UACC-257 and with UACC-62 was > 100 µM (inactive) throughout.
In the case of `CCOC(=O)C12C3CCC1C2C(=O)C3` (stereo not given), the GI50 in the assay on 786-0, with ACHN, with COLO 205, with EKVX, in the assay on HOP-62 and in the assay on K562 was > 100 µM (inactive) each time. Moreover, the GI50 with KM12, with M14, in the assay with MDA-MB-231, with MDA-MB-435, with MDA-N and in the assay on Malme-3M was > 100 µM (inactive) throughout. Further, the GI50 in the assay with NCI-H23, with OVCAR-4, with RXF 393, in the assay on SK-MEL-2, with UACC-257 and with UACC-62 was > 100 µM (inactive) in each case.
In the case of `O=C1Oc2ccccc2C(=O)/C1=C/N1C(=O)N/C(=C\c2cccc(O)c2)C1=O`, the GI50 in the assay with 786-0 was 74.8 µM (inactive); in the assay on ACHN, 20.7 µM (inactive); with COLO 205 it was > 100 µM (inactive); with EKVX, > 100 µM (inactive); in the assay with HOP-62, 69.7 µM (inactive); in the assay with HOP-92 it was > 100 µM (inactive). In addition, the GI50 is 62.5 µM (inactive) in the assay with KM12; 83.8 µM (inactive) with M14; 62.4 µM (inactive) with MDA-MB-231; 54.2 µM (inactive) in the assay on MDA-MB-435; 63.8 µM (inactive) with MDA-N; 84.9 µM (inactive) in the assay on NCI-H23. For the same compound, the GI50 is 85.9 µM (inactive) in the assay with OVCAR-4, 46.2 µM (inactive) in the assay with SK-MEL-2 and > 100 µM (inactive) with UACC-257.
On to `CCOC(=O)CSc1nnc(C(Sc2nc(-c3ccccc3)c(-c3ccccc3)[nH]2)C(C)C)n1-c1ccccc1` (stereo not given), for which the GI50 in the assay with 786-0 is 16 µM (inactive); in the assay with A498 it was > 10 µM (inactive); with ACHN, 19.7 µM (inactive); in the assay with COLO 205, 17 µM (inactive); in the assay on EKVX, 21.2 µM (inactive); in the assay with HOP-62, > 10 µM (inactive). In addition, the GI50 in the assay on HOP-92 was > 10 µM (inactive); in the assay on K562, 24.7 µM (inactive); in the assay with KM12 it was 17.7 µM (inactive); with M14, 14.3 µM (inactive); in the assay with MDA-MB-231, 24.4 µM (inactive); with MDA-N it was 30.4 µM (inactive). Moreover, the GI50 in the assay with Malme-3M is 17.5 µM (inactive); in the assay with NCI-H23 it was > 10 µM (inactive); in the assay on OVCAR-4, 17.5 µM (inactive); with RXF 393, 26.2 µM (inactive); in the assay on SK-MEL-2 it was 16.1 µM (inactive); in the assay on UACC-257 it was 14 µM (inactive). Moreover, the GI50 in the assay with UACC-62 was > 10 µM (inactive).
